Laboratory results as given in article PMC4305368, “Influence of Dimerization of Lipopeptide Laur-Orn-Orn-Cys–NH2 and an N-terminal Peptide of Human Lactoferricin on Biological Activity” (International Journal of Peptide Research and Therapeutics, 2014).
Read-outs that look alike come from different tables or passages of the source. Bridge positions count the residues as written; N and C are the ends. Square brackets hold non-standard residues; d marks the D form. Ends that are not written are not given here. Peptide text beside a SMILES is read from it. I, II: the chains in the order shown. * marks the point of attachment. X1 = CCCCCCCCCCCC(=O)N[C@@H](CCCN)C(=O)N[C@@H](CCCN)C(=O)N[C@@H](CS*)C(N)=O; Lauroyl = CCCCCCCCCCCC(=O)*; Orn = NCCC[C@H](N)C(=O)O

Columns and labels:
S. aureus ATCC 6538 = type: cell-based, Staphylococcus aureus
Method: (§1) The reference strains were supplied by the Polish Collection of Microorganisms (Polish Academy of Sciences, Institute of Immunology and Experimental Therapy, Wroclaw, Poland). Minimal inhibitory concentration (MIC) was determined by the microbroth dilution method outlined by the National Committee for Clinical Laboratory Standards ([2003]). The following microbial strains were tested: Gram-positive: Rhodococcus equi ATCC 6939, Staphylococcus epidermidis, S. aureus ATCC 6538, Streptococcus pyogenes and Enterococcus faecalis; Gram-negative: E. coli ATCC 8739, Pseudomonas aeruginosa and fungi: C. albicans ATCC10231. Bacteria were suspended in Mueller–Hinton II broth (Sigma-Aldrich) at initial inocula of 5 × 10^5 cfu (colony-forming units)/mL, while the Sabouraud 5 % dextrose broth of a pH of 7.4 (Sigma-Aldrich) was used for fungi (at initial inoculum of 5 × 10^3 cfu/mL). Microbial cells in polystyrene 96-well plates were exposed to the peptides at adequate concentrations (range 1–512 μg/mL) for 18 h at 37 °C (bacterial strains) or for 48 h at 25 °C (fungi). MIC was taken as the lowest drug concentration at which observable growth was inhibited. Experiments were performed in triplicate on three different days.

E. coli ATCC 8739 = type: cell-based, Escherichia coli
Method: as §1

C. albicans ATCC10231 = type: cell-based, Candida albicans
Method: as §1

[1] = test system: Staphylococcus epidermidis; type: cell-based
Method: as §1

Enterococcus faecalis = type: cell-based
Method: as §1

Pseudomonas aeruginosa = type: cell-based
Method: as §1

[2] = test system: Rhodococcus equi ATCC 6939; type: cell-based
Method: as §1

Streptococcus pyogenes = type: cell-based
Method: as §1

human red blood cells = assay: Haemolysis assay; type: cell-based; conditions: human red blood cells 4 % [v/v] in PBS, 2 h at 37 °C, range 1-512 µg/mL, assessed visually; 1 % Triton positive control
Method: The haemolytic activity of the peptides was tested against human red blood cells, essentially as described previously (Kamysz et al. [2007]). Fresh human blood was collected into tubes containing EDTA as anticoagulant. Red blood cells were separated by centrifugation at 500×g for 12 min at room temperature and the plasma was aspirated. Erythrocytes were washed three times with PBS, separated by centrifugation (500×g, 12 min) and resuspended in PBS. Peptides I–V were serially diluted in PBS (range 1–512 μg/mL) and 50 μL was added to 50 μL of the erythrocyte suspension. The final concentration of red blood cells was 4 % [v/v]. The results were assessed visually after incubation for 2 h at 37 °C. As a positive control, 1 % Triton was used, whereas PBS served as a negative control.

Row | Molecule | Antimicrobial activity (MIC) (S. aureus ATCC 6538; ATCC 6538, 18 h) | Antimicrobial activity (MIC) (E. coli ATCC 8739; ATCC 8739, 18 h) | Antimicrobial activity (MIC) (C. albicans ATCC10231; ATCC10231, 48 h, pH 7.4) | Antimicrobial activity (MIC) ([1]; 18 h) | Antimicrobial activity (MIC) (Enterococcus faecalis; 18 h) | Antimicrobial activity (MIC) (Pseudomonas aeruginosa; 18 h) | Antimicrobial activity (MIC) ([2]; ATCC 6939, 18 h) | Antimicrobial activity (MIC) (Streptococcus pyogenes; 18 h) | Haemolytic activity (human red blood cells) | Antimicrobial activity (MIC) (S. aureus ATCC 6538; Staphylococcus aureus, Mueller-Hinton II broth, 5 × 10^5 cfu/mL, 18 h at 37 °C, range 1-512 µg/mL, triplicate on three different days) | Antimicrobial activity (MIC) (E. coli ATCC 8739; Escherichia coli, Mueller-Hinton II broth, 5 × 10^5 cfu/mL, 18 h at 37 °C, range 1-512 µg/mL, triplicate on three different days) | Antimicrobial activity (MIC) (C. albicans ATCC10231; Candida albicans, Sabouraud 5 % dextrose broth pH 7.4, 5 × 10^3 cfu/mL, 48 h at 25 °C, range 1-512 µg/mL, triplicate on three different days) | Antimicrobial activity (MIC) ([1]; Staphylococcus epidermidis, Mueller-Hinton II broth, 5 × 10^5 cfu/mL, 18 h at 37 °C, range 1-512 µg/mL, triplicate on three different days) | Antimicrobial activity (MIC) (Enterococcus faecalis; Enterococcus faecalis, Mueller-Hinton II broth, 5 × 10^5 cfu/mL, 18 h at 37 °C, range 1-512 µg/mL, triplicate on three different days) | Antimicrobial activity (MIC) (Pseudomonas aeruginosa; Pseudomonas aeruginosa, Mueller-Hinton II broth, 5 × 10^5 cfu/mL, 18 h at 37 °C, range 1-512 µg/mL, triplicate on three different days) | Antimicrobial activity (MIC) ([2]; Rhodococcus equi, Mueller-Hinton II broth, 5 × 10^5 cfu/mL, 18 h at 37 °C, range 1-512 µg/mL, triplicate on three different days) | Antimicrobial activity (MIC) (Streptococcus pyogenes; Streptococcus pyogenes, Mueller-Hinton II broth, 5 × 10^5 cfu/mL, 18 h at 37 °C, range 1-512 µg/mL, triplicate on three different days)
1 | CCCCCCCCCCCC(=O)N[C@@H](CCCN)C(=O)N[C@@H](CCCN)C(=O)N[C@@H](CS)C(N)=O [Peptide III, Laur-Orn-Orn-Cys–NH2] (Lauroyl-[Orn]-[Orn]-Cys-NH2) | 2 µg/mL | 8 µg/mL | 128 µg/mL | 2 µg/mL | 2 µg/mL | 8 µg/mL | 2 µg/mL | 4 µg/mL | – | – | – | – | – | – | – | – | –
2 | CCCCCCCCCCCC(=O)N[C@@H](CCCN)C(=O)N[C@@H](CCCN)C(=O)N[C@@H](CSSC[C@H](NC(=O)[C@H](CCCN)NC(=O)[C@H](CCCN)NC(=O)CCCCCCCCCCC)C(N)=O)C(N)=O [Peptide IV] (I: Lauroyl-[Orn]-[Orn]-Cys-NH2 / II: Lauroyl-[Orn]-[Orn]-Cys-NH2; disulfide I:3-II:3) | 2 µg/mL | 8 µg/mL | >512 µg/mL | 2 µg/mL | 4 µg/mL | 4 µg/mL | 1 µg/mL | 2 µg/mL | – | – | – | – | – | – | – | – | –
3 | CCCCCCCCCCCC(=O)N[C@@H](CCCN)C(=O)N[C@@H](CCCN)C(=O)N[C@@H](CSSC[C@H](NC(=O)[C@H](Cc1c[nH]c2ccccc12)NC(=O)[C@H](CCC(N)=O)NC(=O)[C@@H](NC(=O)[C@H](CO)NC(=O)[C@H](CCCNC(=N)N)NC(=O)[C@H](CCCNC(=N)N)NC(=O)[C@H](CCCNC(=N)N)NC(=O)[C@H](CCCNC(=N)N)NC(=O)CN)C(C)C)C(=O)N[C@@H](C)C(N)=O)C(N)=O [Peptide V] (H-GRRRRSVQWC(X1)A-NH2; N-terminus assumed) | 4 µg/mL | 128 µg/mL | >512 µg/mL | 1 µg/mL | 32 µg/mL | 8 µg/mL | 2 µg/mL | 2 µg/mL | – | – | – | – | – | – | – | – | –
4 | GRRRRSVQWCA-NH2 [Peptide I, hLF(1–11)–NH2] | – | – | – | – | – | – | – | – | >512 µg/mL | 64 µg/mL | 512 µg/mL | 128 µg/mL | 2 µg/mL | 256 µg/mL | 32 µg/mL | 16 µg/mL | 2 µg/mL
